What was measured:
Test in all cases: relative viability (nuclei count vs DMSO), 5 days (fraction); higher = more cells survive
[1] = test system: UMC-11
Procedure, shortened: (§1)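 For relative viability, nuclei counts in treated wells were divided by those in vehicle wells. Lung cancer cell lines had been pin-tool dosed in 1536-well plates the day after seeding and cultured for 5 days, then fixed and stained in one step (final 0.05% Triton X-100, 1% formaldehyde, 1 ug/ml Hoechst) and imaged at 4×. Doses were one drug alone or a fixed anchor-drug dose plus five library-drug doses (not always all listed) in √10 steps, and values are duplicate-plate medians.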

[2] = test system: NCI-H2023
Procedure, shortened: as §1

[3] = test system: NCI-H1915
Procedure, shortened: as §1

[4] = test system: HCC-44
Procedure, shortened: as §1

[5] = test system: LCLC-97TM1
Procedure, shortened: as §1

[6] = test system: SW 1573
Procedure, shortened: as §1

[7] = test system: NCI-H1734
Procedure, shortened: as §1

[8] = test system: NCI-H2347
Procedure, shortened: as §1

[9] = test system: EPLC-272H
Procedure, shortened: as §1

[10] = test system: NCI-H1975
Procedure, shortened: as §1

[11] = test system: NCI-H2342
Procedure, shortened: as §1

[12] = test system: NCI-H1395
Procedure, shortened: as §1

[13] = test system: NCI-H838
Procedure, shortened: as §1

[14] = test system: HCC-15
Procedure, shortened: as §1

[15] = test system: A-427
Procedure, shortened: as §1

[16] = test system: NCI-H520
Procedure, shortened: as §1

[17] = test system: NCI-H2405
Procedure, shortened: as §1

[18] = test system: COR-L 105
Procedure, shortened: as §1

[19] = test system: LC-2-ad
Procedure, shortened: as §1

[20] = test system: SW 900
Procedure, shortened: as §1

[21] = test system: CAL-12T
Procedure, shortened: as §1

[22] = test system: NCI-H1792
Procedure, shortened: as §1

SMILES: Cc1cn(-c2cc(NC(=O)c3ccc(C)c(Nc4nccc(-c5cccnc5)n4)c3)cc(C(F)(F)F)c2)cn1 [Nilotinib] + O=C(c1cc(Cc2n[nH]c(=O)c3ccccc23)ccc1F)N1CCN(C(=O)C2CC2)CC1 [Olaparib] (partner 8 µM)
- relative viability ([1]; first compound 0.001 µM): 0.39
- relative viability ([1]; first compound 0.003162 µM): 0.384
- relative viability ([1]; first compound 0.01 µM): 0.337
- relative viability ([1]; first compound 0.03162 µM): 0.341
- relative viability ([1]; first compound 0.1 µM): 0.279
- relative viability ([2]; first compound 0.001 µM): 0.429
- relative viability ([2]; first compound 0.003162 µM): 0.486
- relative viability ([2]; first compound 0.01 µM): 0.599
- relative viability ([2]; first compound 0.03162 µM): 0.361
- relative viability ([2]; first compound 0.1 µM): 0.394
- relative viability ([3]; first compound 0.003162 µM): 0.267
- relative viability ([3]; first compound 0.01 µM): 0.244
- relative viability ([3]; first compound 0.03162 µM): 0.255
- relative viability ([3]; first compound 0.1 µM): 0.187
- relative viability ([4]; first compound 0.001 µM): 0.895
- relative viability ([4]; first compound 0.003162 µM): 0.97
- relative viability ([4]; first compound 0.01 µM): 0.976
- relative viability ([4]; first compound 0.1 µM): 0.983
- relative viability ([5]; first compound 0.001 µM): 0.339
- relative viability ([5]; first compound 0.003162 µM): 0.467
- relative viability ([5]; first compound 0.01 µM): 0.461
- relative viability ([5]; first compound 0.03162 µM): 0.446
- relative viability ([5]; first compound 0.1 µM): 0.343
- relative viability ([6]; first compound 0.001 µM): 0.494
- relative viability ([6]; first compound 0.003162 µM): 0.614
- relative viability ([6]; first compound 0.01 µM): 0.662
- relative viability ([6]; first compound 0.03162 µM): 0.364
- relative viability ([6]; first compound 0.1 µM): 0.423
- relative viability ([7]; first compound 0.001 µM): 0.576
- relative viability ([7]; first compound 0.003162 µM): 0.656
- relative viability ([7]; first compound 0.01 µM): 0.689
- relative viability ([7]; first compound 0.03162 µM): 0.543
- relative viability ([7]; first compound 0.1 µM): 0.497
- relative viability ([8]; first compound 0.001 µM): 0.559
- relative viability ([8]; first compound 0.003162 µM): 0.664
- relative viability ([8]; first compound 0.01 µM): 0.633
- relative viability ([8]; first compound 0.03162 µM): 0.57
- relative viability ([8]; first compound 0.1 µM): 0.493
- relative viability ([9]; first compound 0.001 µM): 0.605
- relative viability ([9]; first compound 0.003162 µM): 0.746
- relative viability ([9]; first compound 0.01 µM): 0.696
- relative viability ([9]; first compound 0.03162 µM): 0.448
- relative viability ([9]; first compound 0.1 µM): 0.513
- relative viability ([10]; first compound 0.001 µM): 0.553
- relative viability ([10]; first compound 0.003162 µM): 0.809
- relative viability ([10]; first compound 0.01 µM): 0.786
- relative viability ([10]; first compound 0.03162 µM): 0.491
- relative viability ([10]; first compound 0.1 µM): 0.63
- relative viability ([11]; first compound 0.001 µM): 0.399
- relative viability ([11]; first compound 0.003162 µM): 0.457
- relative viability ([11]; first compound 0.01 µM): 0.464
- relative viability ([11]; first compound 0.03162 µM): 0.338
- relative viability ([11]; first compound 0.1 µM): 0.418
- relative viability ([12]; first compound 0.001 µM): 0.472
- relative viability ([12]; first compound 0.01 µM): 0.473
- relative viability ([12]; first compound 0.03162 µM): 0.493
- relative viability ([12]; first compound 0.1 µM): 0.455
- relative viability ([13]; first compound 0.001 µM): 0.789
- relative viability ([13]; first compound 0.003162 µM): 1.01
- relative viability ([13]; first compound 0.01 µM): 0.878
- relative viability ([13]; first compound 0.03162 µM): 0.838
- relative viability ([13]; first compound 0.1 µM): 0.759
- relative viability ([14]; first compound 0.001 µM): 0.612
- relative viability ([14]; first compound 0.003162 µM): 0.778
- relative viability ([14]; first compound 0.01 µM): 0.734
- relative viability ([14]; first compound 0.03162 µM): 0.692
- relative viability ([14]; first compound 0.1 µM): 0.638
- relative viability ([15]; first compound 0.001 µM): 0.76
- relative viability ([15]; first compound 0.003162 µM): 0.874
- relative viability ([15]; first compound 0.01 µM): 0.86
- relative viability ([15]; first compound 0.03162 µM): 0.804
- relative viability ([15]; first compound 0.1 µM): 0.936
- relative viability ([16]; first compound 0.001 µM): 0.321
- relative viability ([16]; first compound 0.003162 µM): 0.293
- relative viability ([16]; first compound 0.01 µM): 0.305
- relative viability ([16]; first compound 0.03162 µM): 0.316
- relative viability ([16]; first compound 0.1 µM): 0.294
- relative viability ([17]; first compound 0.001 µM): 0.837
- relative viability ([17]; first compound 0.003162 µM): 0.878
- relative viability ([17]; first compound 0.01 µM): 0.858
- relative viability ([17]; first compound 0.03162 µM): 0.728
- relative viability ([17]; first compound 0.1 µM): 0.629
- relative viability ([18]; first compound 0.001 µM): 0.629
- relative viability ([18]; first compound 0.003162 µM): 0.688
- relative viability ([18]; first compound 0.01 µM): 0.645
- relative viability ([18]; first compound 0.03162 µM): 0.636
- relative viability ([18]; first compound 0.1 µM): 1.09
- relative viability ([19]; first compound 0.001 µM): 0.686
- relative viability ([19]; first compound 0.003162 µM): 0.755
- relative viability ([19]; first compound 0.01 µM): 0.689
- relative viability ([19]; first compound 0.03162 µM): 0.874
- relative viability ([19]; first compound 0.1 µM): 0.594
- relative viability ([20]; first compound 0.003162 µM): 0.916
- relative viability ([20]; first compound 0.01 µM): 0.965
- relative viability ([20]; first compound 0.03162 µM): 0.77
- relative viability ([20]; first compound 0.1 µM): 0.776
- relative viability ([21]; first compound 0.001 µM): 0.648
- relative viability ([21]; first compound 0.003162 µM): 0.677
- relative viability ([21]; first compound 0.01 µM): 0.738
- relative viability ([21]; first compound 0.03162 µM): 0.67
- relative viability ([21]; first compound 0.1 µM): 0.793
- relative viability ([22]; first compound 0.001 µM): 0.312
- relative viability ([22]; first compound 0.003162 µM): 0.535
- relative viability ([22]; first compound 0.01 µM): 0.456
- relative viability ([22]; first compound 0.03162 µM): 0.258
- relative viability ([22]; first compound 0.1 µM): 0.319

From the supplement of paper PMC10307832
